Assay results: patent publication US9597407B2, “Targeted antimicrobial moieties” (C3 Jian, Inc., priority 2009, dated 2017)
Entries after “also recorded” stand apart in the source; their conditions may differ.

B1: PF-748 (peptide)
chain 1: FQGFFDVAVNKWWEEHNKAKLWKNVKGKFLEGEGEEEDDE
chain 2: B1 chain 1
modifications: Peptide with targeting and/or antimicrobial activity

Key:
microorganisms [1] = assay: Peptide activities: binding, antimicrobial, growth or phenotype altering (Table 8)
From the text: In certain embodiments, peptides described herein can have multiple activities. Thus for example, a peptide can have both binding/targeting activity and antimicrobial activity. Such peptides can be used, e.g., in a chimeric construct, for any or all of these properties. Thus, for example, a peptide designated “B” in Table 8 can be used as a targeting peptide. If it is also designated G or M it can also be used for antimicrobial activity.

microorganisms [2] = assay: Morphology, biofilm and growth disruption by peptides (Table 5); format: cell-based; parameters: key: A: Peptide aggregates; B: Less hyphal formation; Clumps; Diffuse clumps and small polyps; F: Diffuse growth; H: Thin; I: Growth inhibition; Microcolony formation; Rippled; Small polyps; Thick; W: Halo formation on top, microlonies on bottom
From the text: In certain embodiments peptides that induce alterations in phenotype or other biological activities can also be used as antimicrobial effector moieties.

bacteria = assay: Binding of targeting peptides to microorganisms (Table 3); conditions: preferably 1x PBS; for Target(s): microorganism the targeting peptide binds, binding in aqueous buffers that varied with peptide solubility; for Target(s) (microorganisms bound by the targeting peptide) / Target(s) (microorganism bound by the targeting peptide): peptide binding in aqueous buffers that varied depending on peptide solubility

Row | Molecule | Activities (microorganisms [1]) | Organism, effect (microorganisms [2]; S. epidermidis) | Organism, effect (morphology, biofilm and growth disruption) (microorganisms [2]; S. epidermidis) | Organism, effect (morphology, biofilm and growth disruption) (microorganisms [2]; S. pneumoniae) | Organism, effect (morphology, biofilm and growth disruption) (microorganisms [2]; MRSA) | Organism, effect (microorganisms [2]; MRSA) | further results
1 | PF-034 (EPKKKHFPKMESASSEP; Peptide with targeting and/or antimicrobial activity) | G B | S. epidermidis (A) | – | – | – | – | Target(s) (bacteria): M. luteus
2 | PF-514 (QRFYKLFYHIDLTNEQALKLFQVK; Peptide with targeting and/or antimicrobial activity) | G B | – | S. epidermidis (C) | S. pneumoniae (M) | – | – | Organism, effect (morphology, biofilm and growth disruption) (microorganisms [2]; E. coli): E. coli (R); Organism, effect (morphology, biofilm and growth disruption) (microorganisms [2]; E. faecalis): E. faecalis (C); Target(s) (microorganisms bound by the targeting peptide) (bacteria): S. epidermidis and E. coli and P. aeruginosa and C. albicans and MRSA and S. pneumoniae and E. faecalis and C. jeikeium
3 | PF-760 (chain 1 DHITLDDYEIHDGFNFELYYG; chain 2 DHITLDDYEIHDGFNFELYYG; Peptide with targeting and/or antimicrobial activity) | G B | – | S. epidermidis (M) | S. pneumoniae (C) | MRSA (M) | – | Target(s) (microorganism bound by the targeting peptide) (bacteria): S. epidermidis; also recorded: M. luteus
4 | PF-392 (DPAGCNDIVRKYCK; Peptide with targeting and/or antimicrobial activity) | G B | – | – | – | – | MRSA (S) | Organism, effect (microorganisms [2]; C. jejuni): C. jejuni (A); Organism, effect (microorganisms [2]; E. faecalis): E. faecalis (A); Target(s) (microorganisms bound by the targeting peptide) (bacteria): S. epidermidis; also recorded: B. subtilis; also recorded: S. pneumoniae; also recorded: C. jeikeium; also recorded: C. jejuni
5 | PF-043 (MIKNETAYQMNELLVIRSAYAK; Peptide with targeting and/or antimicrobial activity) | G B | S. epidermidis (D) | – | – | – | MRSA (R) | Organism, effect (microorganisms [2]; C. jeikeium): C. jeikeium (A); Organism, effect (microorganisms [2]; M. luteus): M. luteus (C); Target(s) (bacteria): M. luteus; also recorded: C. jejuni
6 | PF-464 (VDMVNRFLGN; Peptide with targeting and/or antimicrobial activity) | G B | – | – | S. pneumoniae (S) | – | – | Target(s) (microorganisms bound by the targeting peptide) (bacteria): S. epidermidis and C. albicans and MRSA and S. pneumoniae and E. faecalis and C. jeikeium and C. jejuni
7 | PF-625 (chain 1 SDSTNNARTRKKARDVTTKDIDK; chain 2 SDSTNNARTRKKARDVTTKDIDK; Peptide with targeting and/or antimicrobial activity) | G B | – | – | S. pneumoniae (H) | – | – | Target(s) (microorganism bound by the targeting peptide) (bacteria): S. epidermidis; also recorded: M. luteus; also recorded: S. pneumoniae; also recorded: C. jeikeium
8 | PF-744 (chain 1 LGVGTFVGKVLIKNQQKQKSKKKAQ; chain 2 LGVGTFVGKVLIKNQQKQKSKKKAQ; Peptide with targeting and/or antimicrobial activity) | G B | – | – | S. pneumoniae (H) | – | – | Target(s) (microorganism bound by the targeting peptide) (bacteria): S. epidermidis and M. luteus and E. coli and MRSA and S. pneumoniae and E. faecalis and C. jeikeium
9 | PF-029 (NSTNE; Peptide with targeting and/or antimicrobial activity) | G B | – | – | – | – | MRSA (M) | Target(s) (bacteria): S. epidermidis; also recorded: M. luteus; also recorded: C. albicans; also recorded: C. jejuni
10 | PF-556 (SLQIRMNTLTAAKASIEAA; Peptide with targeting and/or antimicrobial activity) | G B | – | S. epidermidis (A) | S. pneumoniae (D) | MRSA (M) | – | Organism, effect (morphology, biofilm and growth disruption) (microorganisms [2]; B. subtilis): B. subtilis (C); Organism, effect (morphology, biofilm and growth disruption) (microorganisms [2]; C. jeikeium): C. jeikeium (D); Organism, effect (morphology, biofilm and growth disruption) (microorganisms [2]; C. jejuni): C. jejuni (R); Organism, effect (morphology, biofilm and growth disruption) (microorganisms [2]; E. faecalis): E. faecalis (A); Organism, effect (morphology, biofilm and growth disruption) (microorganisms [2]; M. luteus): M. luteus (A)
11 | PF-012 (WRGPNTEAGGKSANNIVQVGGAPT; Peptide with targeting and/or antimicrobial activity) | G B | S. epidermidis (S) | – | – | – | MRSA (R) | Organism, effect (microorganisms [2]; C. jeikeium): C. jeikeium (A); Organism, effect (microorganisms [2]; M. luteus): M. luteus (C)
12 | PF-030 (MTCHQAPTTTHQSNMA; Peptide with targeting and/or antimicrobial activity) | G B | S. epidermidis (D) | – | – | – | MRSA (R) | Organism, effect (microorganisms [2]; C. jeikeium): C. jeikeium (C); Organism, effect (microorganisms [2]; M. luteus): M. luteus (C)
13 | PF-562 (TPEQWLERSTVVVTGLLNRK; Peptide with targeting and/or antimicrobial activity) | G B | – | S. epidermidis (A) | S. pneumoniae (D) | MRSA (M) | – | Organism, effect (morphology, biofilm and growth disruption) (microorganisms [2]; C. jejuni): C. jejuni (R); Organism, effect (morphology, biofilm and growth disruption) (microorganisms [2]; M. luteus): M. luteus (R)
14 | PF-451 (MVNYIIGSYMLYREQNNNEALRKFDITLAM; Peptide with targeting and/or antimicrobial activity) | G B | – | S. epidermidis (C) | S. pneumoniae (C) | MRSA (C) | – | Organism, effect (morphology, biofilm and growth disruption) (microorganisms [2]; E. coli): E. coli (R); Organism, effect (morphology, biofilm and growth disruption) (microorganisms [2]; E. faecalis): E. faecalis (C)
15 | PF-475 (MREKVRFTQAFKLFWTNYFNFKGRSRRSEY; Peptide with targeting and/or antimicrobial activity) | G B | – | S. epidermidis (M) | S. pneumoniae (R) | MRSA (S) | – | Organism, effect (morphology, biofilm and growth disruption) (microorganisms [2]; C. albicans): C. albicans (B); Organism, effect (morphology, biofilm and growth disruption) (microorganisms [2]; C. jejuni): C. jejuni (R); Organism, effect (morphology, biofilm and growth disruption) (microorganisms [2]; E. faecalis): E. faecalis (R)
16 | PF-469 (YKVNYNNIDNHFNTLRH; Peptide with targeting and/or antimicrobial activity) | G B | – | S. epidermidis (D) | S. pneumoniae (D) | MRSA (D) | – | Organism, effect (morphology, biofilm and growth disruption) (microorganisms [2]; C. jejuni): C. jejuni (D); Organism, effect (morphology, biofilm and growth disruption) (microorganisms [2]; E. coli): E. coli (C); Organism, effect (morphology, biofilm and growth disruption) (microorganisms [2]; E. faecalis): E. faecalis (D)
17 | PF-578 (QKANLRIGFTYTSDSNVCNLTFALLGSK; Peptide with targeting and/or antimicrobial activity) | G B | – | S. epidermidis (D) | S. pneumoniae (D) | MRSA (C) | – | Organism, effect (morphology, biofilm and growth disruption) (microorganisms [2]; E. coli): E. coli (C); Organism, effect (morphology, biofilm and growth disruption) (microorganisms [2]; M. luteus): M. luteus (C); Organism, effect (morphology, biofilm and growth disruption) (microorganisms [2]; P. mirabilis): P. mirabilis (C); Organism, effect (morphology, biofilm and growth disruption) (microorganisms [2]; S. mutans): S. mutans (D)
18 | PF-357 (MLTIIIGFIFWTMTLMLGYLIGEREGRKHE; Peptide with targeting and/or antimicrobial activity) | G B | S. epidermidis (M) | – | – | – | MRSA (M) | Organism, effect (microorganisms [2]; M. luteus): M. luteus (C); Organism, effect (microorganisms [2]; S. pneumoniae): S. pneumoniae (M)
19 | PF-356 (VSIKIGAIVIGMIGLMELLTE; Peptide with targeting and/or antimicrobial activity) | G B | S. epidermidis (S) | – | – | – | MRSA (C) | Organism, effect (microorganisms [2]; C. jejuni): C. jejuni (D); Organism, effect (microorganisms [2]; E. faecalis): E. faecalis (R); Organism, effect (microorganisms [2]; P. aeruginosa): P. aeruginosa (A); Organism, effect (microorganisms [2]; S. pneumoniae): S. pneumoniae (R)
20 | PF-063 (IAAIIVLVLFQKGLLQIFNWILIQLQ; Peptide with targeting and/or antimicrobial activity) | G B | S. epidermidis (R) | – | – | – | MRSA (M) | Organism, effect (microorganisms [2]; B. subtilis): B. subtilis (C); Organism, effect (microorganisms [2]; C. jeikeium): C. jeikeium (D); Organism, effect (microorganisms [2]; C. jejuni): C. jejuni (D); Organism, effect (microorganisms [2]; M. luteus): M. luteus (R); Organism, effect (microorganisms [2]; P. aeruginosa): P. aeruginosa (A); Organism, effect (microorganisms [2]; S. pneumoniae): S. pneumoniae (D)
21 | PF-577 (PFETRESFRVPVIGILGGWDYFMHP; Peptide with targeting and/or antimicrobial activity) | G B | – | S. epidermidis (A) | S. pneumoniae (R) | MRSA (M) | – | Organism, effect (morphology, biofilm and growth disruption) (microorganisms [2]; C. jejuni): C. jejuni (R); Organism, effect (morphology, biofilm and growth disruption) (microorganisms [2]; E. coli): E. coli (A); Organism, effect (morphology, biofilm and growth disruption) (microorganisms [2]; E. faecalis): E. faecalis (A); Organism, effect (morphology, biofilm and growth disruption) (microorganisms [2]; P. aeruginosa): P. aeruginosa (A)
22 | B1 | G B | – | – | S. pneumoniae (H) | – | – | –
